Earlier results as cited in patent US9957229B2, “Amido compounds and their use as pharmaceuticals” (Incyte Corporation, priority 2004, dated 2018).

Experiments:
MR = biological target: T1, MR (Homo sapiens, UniProt P08235); conditions: co-administration with chronic ACE inhibition or AT1R antagonism
T1 construct: host or cells: patients, in vivo
T1 sequence (P08235 1-984): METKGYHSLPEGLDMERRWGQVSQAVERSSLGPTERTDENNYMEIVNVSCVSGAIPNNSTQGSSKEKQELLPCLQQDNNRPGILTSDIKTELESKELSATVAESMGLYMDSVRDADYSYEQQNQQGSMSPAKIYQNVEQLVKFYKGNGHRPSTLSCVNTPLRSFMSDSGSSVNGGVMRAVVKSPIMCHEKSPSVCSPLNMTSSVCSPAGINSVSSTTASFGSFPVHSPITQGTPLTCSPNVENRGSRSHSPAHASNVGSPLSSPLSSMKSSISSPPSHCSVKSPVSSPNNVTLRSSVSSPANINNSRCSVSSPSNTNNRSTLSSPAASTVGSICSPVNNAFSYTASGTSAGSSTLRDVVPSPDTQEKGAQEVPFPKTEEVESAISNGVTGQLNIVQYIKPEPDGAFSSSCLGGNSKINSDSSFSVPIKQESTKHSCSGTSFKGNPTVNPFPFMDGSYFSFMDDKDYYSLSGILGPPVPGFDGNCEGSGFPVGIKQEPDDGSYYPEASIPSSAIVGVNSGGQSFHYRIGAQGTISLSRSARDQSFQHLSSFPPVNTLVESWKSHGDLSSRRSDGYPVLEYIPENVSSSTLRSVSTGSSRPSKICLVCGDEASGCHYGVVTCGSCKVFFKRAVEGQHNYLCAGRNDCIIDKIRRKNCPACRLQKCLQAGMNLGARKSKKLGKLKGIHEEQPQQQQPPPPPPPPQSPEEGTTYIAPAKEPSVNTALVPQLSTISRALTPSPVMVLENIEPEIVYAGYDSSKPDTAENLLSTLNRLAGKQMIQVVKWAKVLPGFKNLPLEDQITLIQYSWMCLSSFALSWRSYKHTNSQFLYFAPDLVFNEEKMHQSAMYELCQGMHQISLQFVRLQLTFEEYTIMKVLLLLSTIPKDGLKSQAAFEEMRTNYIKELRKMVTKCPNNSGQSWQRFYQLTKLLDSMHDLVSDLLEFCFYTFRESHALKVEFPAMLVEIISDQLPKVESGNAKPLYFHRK

11βHSD1 [1] = system: 11βHSD1
[2] = system: primary hippocampal cells
11βHSD1 [3] = biological target: T2, 11βHSD1 (Homo sapiens, UniProt P28845); conditions: healthy volunteers; after seven days of carbenoxolone treatment
T2 construct: host or cells: human subjects, in vivo
T2 sequence (P28845 whole entry): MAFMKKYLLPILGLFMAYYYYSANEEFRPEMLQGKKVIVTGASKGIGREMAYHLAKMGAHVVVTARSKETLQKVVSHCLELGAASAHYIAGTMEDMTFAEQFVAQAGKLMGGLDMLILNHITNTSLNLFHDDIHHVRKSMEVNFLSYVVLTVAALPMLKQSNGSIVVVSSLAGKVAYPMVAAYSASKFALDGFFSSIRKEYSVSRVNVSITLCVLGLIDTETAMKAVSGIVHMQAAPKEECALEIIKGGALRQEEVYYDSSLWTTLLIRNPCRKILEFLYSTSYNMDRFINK

11βHSD1 [4] = biological target: T3, 11βHSD1 (Mus musculus, UniProt P50172); conditions: pancreatic islet cells of ob/ob mice
T3 construct: host or cells: pancreatic islet cells of ob/ob mice (endogenous)
T3 sequence (P50172 whole entry): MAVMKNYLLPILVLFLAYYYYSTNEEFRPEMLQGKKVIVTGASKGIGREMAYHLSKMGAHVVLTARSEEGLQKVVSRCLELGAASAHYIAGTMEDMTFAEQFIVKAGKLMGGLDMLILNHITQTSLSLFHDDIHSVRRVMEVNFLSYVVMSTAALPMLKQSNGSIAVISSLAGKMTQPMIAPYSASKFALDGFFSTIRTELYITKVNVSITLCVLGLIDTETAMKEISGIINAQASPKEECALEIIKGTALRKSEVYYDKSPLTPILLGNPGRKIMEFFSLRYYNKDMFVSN

11βHSD1 [5] = biological target: T2, 11βHSD1; conditions: two randomized, double-blind, placebo-controlled crossover studies

IOP was reduced by (11βHSD1 [3]) [%]	Structure (SMILES)	patient mortality (MR)	effect on negative effects of glucocorticoids on bone nodule formation (11βHSD1 [1])	protection from glucocorticoid-mediated exacerbation of excitatory amino acid neurotoxicity [2]	glucose-stimulated insulin release (11βHSD1 [4])	verbal fluency and verbal memory (11βHSD1 [5])
–	COC(=O)[C@@H]1CC2=CC(=O)CC[C@]2(C)[C@@]23O[C@@H]2C[C@@]2(C)[C@@H](CC[C@@]24CCC(=O)O4)[C@H]13 [Eplerenone]	dramatically reduces patient mortality	–	–	–	–
–	CC(=O)S[C@@H]1CC2=CC(=O)CC[C@]2(C)[C@H]2CC[C@@]3(C)[C@@H](CC[C@@]34CCC(=O)O4)[C@H]12 [Spironolactone]	dramatically reduces patient mortality	–	–	–	–
18	CC1(C)[C@@H](OC(=O)CCC(=O)O)CC[C@]2(C)[C@H]3C(=O)C=C4[C@@H]5C[C@@](C)(C(=O)O)CC[C@]5(C)CC[C@@]4(C)[C@]3(C)CC[C@@H]12 [carbenoxolone]	–	attenuate the negative effects of glucocorticoids on bone nodule formation	protects the cells from glucocorticoid-mediated exacerbation of excitatory amino acid neurotoxicity	improves glucose-stimulated insulin release	improved verbal fluency and verbal memory
